Like-named read-outs stand apart in the source and are kept apart here.
Legend:
MYB mRNA = experiment: RT-qPCR splicing assay, MYB mRNA canonical (CJ) and alternative (AJ) junction; type: cell-based, human; conditions: Homo sapiens; for AC50: MYB alternative junction mRNA, read-out: MYB AJ (increase in AJ mRNA, AC50)
How it was run: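 Junction-specific RT-qPCR read-out: CJ and AJ isoform levels, housekeeper-normalized (GAPDH/GUSB/PPIA), ΔΔCt vs DMSO, converted to RQ then % response. Cells: A673 (DMEM/10% FBS, adhered 24 h) or K562 (IMDM/10% FBS). Compound 11-pt 3-fold, top 10 uM, 24 h, 37 °C.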

Target C = experiment: RT-qPCR canonical junction panel assay, Target C mRNA; type: cell-based; conditions: Table 4, read-out: Target C IC50 (decrease in CJ mRNA levels)
How it was run: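 IC50 is the concentration giving 50% CJ decrease, from a 4-parameter logistic fit of percent response; response derived from ΔΔCt against housekeeper and DMSO over a fixed ΔCt window, with canonical exon-junction qPCR in compound-treated K562 or A673 cells.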

[1] = MYB canonical junction mRNA, RT-qPCR, read-out: MYB CJ (decrease in CJ mRNA levels, IC50)
[2] = canonical junction qPCR panel, Table 4, read-out: MYB IC50 (decrease in CJ mRNA levels)

SMILES	IC50 (MYB mRNA; [1]) [nM]	IC50 (MYB mRNA; [2]) [nM]	IC50 (Target C) [nM]	AC50 (MYB mRNA; RT-qPCR) [nM]
Cc1nc2cc(O)c(-c3ccc4nc(N5CC[C@@H](N(C)C(C)(C)C)C5)ccc4n3)cc2o1 [Compound 493]	< 100	< 100	< 100	< 100
CNC(=O)c1nc(-c2cc(F)c3nc(C)cn3c2)nc2ccc(N3CCNCC3)cc12 [Compound 505, 2-{8-fluoro-2-methylimidazo[1,2-a]pyridin-6-yl}-N-methyl-6-(piperazin-1-yl) quinazoline-4-carboxamide]	< 100	< 100	100 to 1000	< 100
CNC(=O)c1nc(-c2cc3cn(C)nc3c(C)c2O)nc2ccc(N3CCC(N(C)C)CC3)cc12 [Compound 507, 6-[4-(dimethylamino)piperidin-1-yl]-2-(6-hydroxy-2,7-dimethylindazol-5-yl)-N-methylquinazoline-4-carboxamide]	< 100	< 100	1000 to 10000	< 100
CNC(=O)c1nc(-c2cc3cn(C)nc3c(C)c2O)nc2ccc(N3CCC(NC)C3)cc12 (stereo not drawn) [Compound 510, 2-(6-hydroxy-2,7-dimethylindazol-5-yl)-N-methyl-6-[3-(methylamino)pyrrolidin-1-yl]quinazoline-4-carboxamide]	< 100	< 100	100 to 1000	< 100
CNC(=O)c1nc(-c2cc3cn(C)nc3c(C)c2O)nc2ccc(N3C[C@@H](C)N[C@@H](C)C3)cc12 [Compound 511, 6-[(3R,5S)-3,5-dimethylpiperazin-1-yl]-2-(6-hydroxy-2,7-dimethylindazol-5-yl)-N-methylquinazoline-4-carboxamide]	< 100	< 100	1000 to 10000	< 100
CC(=O)c1nc(-c2cc3cn(C)nc3c(F)c2O)nc2ccc(N3CCNCC3)cc12 [Compound 513, 1-(2-(7-fluoro-6-hydroxy-2-methyl-2H-indazol-5-yl)-6-(piperazin-1-yl)quinazolin-4-yl)ethan-1-one 2,2,2-trifluoroacetate]	< 100	< 100	1000 to 10000	< 100
Cn1cc2cc(-c3nc(C#N)c4cc(N5CCNCC5)ccc4n3)c(O)c(F)c2n1 [Compound 514, 2-(7-fluoro-6-hydroxy-2-methylindazol-5-yl)-6-(piperazin-1-yl) quinazoline-4-carbonitrile; trifluoroacetic acid]	< 100	< 100	1000 to 10000	< 100
Cc1c(O)c(-c2ccc3cc(N4CCNCC4)cc(F)c3n2)cc2cn(C)nc12 [Compound 515, 5-[8-fluoro-6-(piperazin-1-yl)quinolin-2-yl]-2,7-dimethylindazol-6-ol]	< 100	< 100	100 to 1000	< 100
Cn1cc2cc(-c3ccc4cc(N5CCNCC5)cc(F)c4n3)cc(F)c2n1 [Compound 516, 8-fluoro-2-(7-fluoro-2-methylindazol-5-yl)-6-(piperazin-1-yl)quinoline]	< 100	< 100	100 to 1000	100 to 1000
Cc1cn2cc(-c3ccc4cc(N5CCNCC5)cc(F)c4n3)cc(F)c2n1 [Compound 517, 8-fluoro-2-{8-fluoro-2-methylimidazo[1,2-a]pyridin-6-yl}-6-(piperazin-1-yl)quinoline]	< 100	< 100	100 to 1000	< 100
Cn1cc2cc(-c3nc(C4CC4)c4cc(N5CCNCC5)ccc4n3)c(O)c(F)c2n1 [Compound 518, 5-[4-cyclopropyl-6-(piperazin-1-yl)quinazolin-2-yl]-7-fluoro-2-methylindazol-6-ol; trifluoroacetic acid]	< 100	< 100	> 10000	100 to 1000
Cc1c(O)c(-c2ncc3cc(N4C[C@@H](C)N[C@@H](C)C4)ccc3n2)cc2cn(C)nc12 [Compound 525, 5-{6-[(3R,5S)-3,5-dimethylpiperazin-1-yl]quinazolin-2-yl}-2,7-dimethylindazol-6-ol]	< 100	< 100	1000 to 10000	< 100
Cc1c(O)c(-c2ncc3nc(N4C[C@@H](C)N[C@@H](C)C4)ccc3n2)cc2cn(C)nc12 [Compound 526, 5-{6-[(3R,5S)-3,5-dimethylpiperazin-1-yl]pyrido[3,2-d]pyrimidin-2-yl}-2,7-dimethylindazol-6-ol]	< 100	< 100	1000 to 10000	100 to 1000
CNC(=O)c1nc(-c2cc3cn(C)nc3c(F)c2O)nc2ccc(N3C[C@@H](C)N[C@@H](C)C3)cc12 [Compound 527, 6-[(3R,5S)-3,5-dimethylpiperazin-1-yl]-2-(7-fluoro-6-hydroxy-2-methylindazol-5-yl)-N-methylquinazoline-4-carboxamide]	< 100	< 100	100 to 1000	< 100
CNC(=O)c1nc(-c2cc3cn(C)nc3c(F)c2O)nc2ccc(N3CCC(N(C)C)CC3)cc12 [Compound 528, 6-[4-(dimethylamino)piperidin-1-yl]-2-(7-fluoro-6-hydroxy-2-methylindazol-5-yl)-N-methylquinazoline-4-carboxamide]	< 100	< 100	1000 to 10000	< 100
CNC(=O)c1nc(-c2cc3cn(C)nc3c(F)c2O)nc2ccc(N3CCN[C@@H](C)C3)cc12 [Compound 529, 2-(7-fluoro-6-hydroxy-2-methylindazol-5-yl)-N-methyl-6-[(3S)-3-methylpiperazin-1-yl]quinazoline-4-carboxamide]	< 100	< 100	1000 to 10000	< 100
CNC(=O)c1nc(-c2cc3cn(C)nc3cc2O)nc2ccc(N3CCN[C@@H](C)C3)cc12 [Compound 530, 2-(6-hydroxy-2-methylindazol-5-yl)-N-methyl-6-[(3S)-3-methylpiperazin-1-yl]quinazoline-4-carboxamide]	< 100	< 100	> 10000	< 100

Continued, in another order:

IC50 (MYB mRNA; [1]) [nM]	IC50 (MYB mRNA; [2]) [nM]	IC50 (Target C) [nM]	SMILES	AC50 (MYB mRNA; RT-qPCR) [nM]
1000 to 10000	1000 to 10000	1000 to 10000	Cc1c(O)c(-c2nc(C(=O)N(C)C)c3cc(N4CCNCC4)ccc3n2)cc2cn(C)nc12 [Compound 502, 2-(6-hydroxy-2,7-dimethylindazol-5-yl)-N,N-dimethyl-6-(piperazin-1-yl)quinazoline-4-carboxamide]	1000 to 10000
< 100	< 100	100 to 1000	CCNC(=O)c1nc(-c2cc3cn(C)nc3c(C)c2O)nc2ccc(N3CCNCC3)cc12 [Compound 503, N-ethyl-2-(6-hydroxy-2,7-dimethylindazol-5-yl)-6-(piperazin-1-yl)quinazoline-4-carboxamide]	< 100
< 100	< 100	100 to 1000	CNC(=O)c1nc(-c2cc3cn(C)nc3c(F)c2O)nc2ccc(N3CCNCC3)cc12 [Compound 506, 2-(7-fluoro-6-hydroxy-2-methylindazol-5-yl)-N-methyl-6-(piperazin-1-yl)quinazoline-4-carboxamide]	< 100
1000 to 10000	1000 to 10000	> 10000	CNc1nc(-c2cc3cn(C)nc3c(C)c2O)nc2ccc(N3CCNCC3)cc12 [Compound 508, 2,7-dimethyl-5-[4-(methylamino)-6-(piperazin-1-yl)quinazolin-2-yl]indazol-6-ol]	1000 to 10000
> 10000	> 10000	> 10000	Cc1c(O)c(-c2nc(N(C)C)c3cc(N4CCNCC4)ccc3n2)cc2cn(C)nc12 [Compound 509, 5-[4-(dimethylamino)-6-(piperazin-1-yl)quinazolin-2-yl]-2,7-dimethylindazol-6-ol]	> 10000
100 to 1000	100 to 1000	> 10000	Cc1c(O)c(-c2nc(-c3cncs3)c3cc(N4CCNCC4)ccc3n2)cc2cn(C)nc12 [Compound 519, 2,7-dimethyl-5-[6-(piperazin-1-yl)-4-(1,3-thiazol-5-yl)quinazolin-2-yl]indazol-6-ol]	100 to 1000
100 to 1000	100 to 1000	1000 to 10000	Cc1c(O)c(-c2ncc3cc(N4CCNCC4)ccc3n2)cc2cn(C)nc12 [Compound 520, 2,7-dimethyl-5-[6-(piperazin-1-yl)quinazolin-2-yl]indazol-6-ol]	< 100
1000 to 10000	1000 to 10000	> 10000	Cc1c(O)c(-c2nc(-c3nnc[nH]3)c3cc(N4CCNCC4)ccc3n2)cc2cn(C)nc12 [Compound 522, 2,7-dimethyl-5-[6-(piperazin-1-yl)-4-(4H-1,2,4-triazol-3-yl)quinazolin-2-yl]indazol-6-ol; bis(trifluoroacetic acid)]	1000 to 10000
< 100	< 100	1000 to 10000	Cc1c(O)c(-c2nc(C(N)=O)c3cc(N4CCNCC4)ccc3n2)cc2cn(C)nc12 [Compound 523, 2-(6-hydroxy-2,7-dimethylindazol-5-yl)-6-(piperazin-1-yl) quinazoline-4-carboxamide]	< 100
> 10000	> 10000	> 10000	Cc1c(O)c(-c2nc(C(=O)O)c3cc(N4CCNCC4)ccc3n2)cc2cn(C)nc12 [Compound 524, 2-(6-hydroxy-2,7-dimethylindazol-5-yl)-6-(piperazin-1-yl) quinazoline-4-carboxylic acid]	> 10000

Source: US20250092065A1, “2-(INDAZOL-5-YL)-6-(PIPERIDIN-4-YL)-1,7-NAPHTHYRIDINE DERIVATIVES AND RELATED COMPOUNDS AS MODULATORS FOR SPLICING NUCLEIC ACIDS AND FOR THE TREATMENT OF PROLIFERATIVE DISEASES” (REMIX THERAPEUTICS INC., priority 2022, published 2025)
